{"source": "patent US12616192B2", "about": "“Compositions and methods for preserving or increasing platelet function” (Washington University, priority 2021, dated 2026)", "key": {"[1]": {"test_system": "platelets", "details": "in vitro taurine addition; cited from earlier work"}, "[2]": {"test_system": "platelets", "details": "rats fed taurine; cited from earlier work"}, "[3]": {"test_system": "platelets", "details": "cited from earlier work"}, "[4]": {"test_system": "platelet concentrates (CS-PLT)", "assay": "occlusive clot formation in a collagen-coated stenotic microfluidic chamber (microfluidic model of occlusion)", "type": "cell-based", "details": "for time to occlude the microfluidic channel versus non-supplemented CS-PLT: 500 μM taurine at the beginning of storage", "protocol": "Next, the ability of the platelet concentrates to form an occlusive clot against an arterial pressure head in a stenotic microfluidic chamber coated with collagen was analyzed (FIG. 2). The important variable/metric extracted from this platelet function is the occlusion area under the curve, or OAUC; a larger OAUC implies faster and more robust occlusion, and thus improved hemostatic platelet function.\nTo determine if this was the case, experiments were performed to supplement CS-PLT with taurine during storage, with the hypothesis that the supplemental (or “extra”) taurine would lead to inhibition of aggregation, as similar to the aforementioned reports from the literature. Next, the platelet concentrates were supplemented at the beginning of storage with 500 μM taurine, and assayed for alterations in function using a microfluidic model of occlusion."}}, "note": "Like-named read-outs stand apart in the source and are kept apart here."}
{"smiles": "NCCS(=O)(=O)O", "note": "[taurine, 2-aminoethanesulfonic acid]", "values": [{"measurement": "platelet aggregation", "setting": "[1]", "result": "inhibit platelet aggregation"}, {"measurement": "ex vivo platelet aggregation", "setting": "[2]", "result": "reduced platelet aggregation"}, {"measurement": "ex vivo platelet aggregation", "setting": "[3]; 1989 study, taurine supplementation in humans", "result": "reduced aggregation"}, {"measurement": "ex vivo platelet aggregation", "setting": "[3]; 2010 study, healthy human donors that drank taurine-containing solutions", "result": "increased ex vivo aggregation"}, {"measurement": "platelet aggregation (shift of occlusion curves, OAUC)", "setting": "[4]; CS-PLT supplemented with 500 μM taurine at the beginning of storage (TaurSTORAGE)", "result": "increased platelet aggregation"}, {"measurement": "time to occlude the microfluidic channel versus non-supplemented CS-PLT", "setting": "[4]; D7 CS-PLT", "result": "half of the time"}, {"measurement": "time to occlude the microfluidic channel versus non-supplemented CS-PLT", "setting": "[4]; D14 CS-PLT", "result": "half of the time"}, {"measurement": "occlusion curve phenotype", "setting": "[4]; D14 non-supplemented CS-PLT, exogenous taurine 500 μM added just prior to assessment (TaurASSAY)", "result": "middle phenotype"}, {"measurement": "hemostatic function under physiologically relevant flow", "setting": "[4]; taurine supplementation during platelet concentrate storage", "result": "robustly increases hemostatic function"}]}
